Patent US20200197439A1, “IMM[…] POLYOMAVIRUSES” (Atara Biotherapeutics, Inc., priority 2016, published 2020)

Tested on: CD8+ T cells
Assay: HLA restriction of mapped CD8+ BKV epitopes (ICS with peptide loaded HLA-matched and mismatched LCLs)
Assay type: cell-based, human
Settings: CD8+ epitopes mapped in this study; T cells stimulated with peptide loaded HLA-matched and mismatched LCLs
Text: In order to characterize the T cell responses directed towards these antigens and precisely map the HLA class I and class II-restricted T cell responses, individual overlapping peptides (15 aa long overlapping by 10 aa) were sourced for LTA, STA and VP1 proteins for T cell epitope mapping. A two-dimensional peptide matrix was used to distribute all individual peptides into small overlapping peptide pools. The matrix is set up in the way that each peptide occurs once on the ordinate (FIG. 3). These peptide pools were used in ICS assays. After the ICS analysis, T cell response to the peptide pools was compared with the matrix to identify individual peptides. These individual peptides were further assessed for T cell expansion and ICS analysis to identify potential BK. Once the 15 mer peptide was identified, further mimimalization of the epitope sequence was carried out to identify the optimal T cell epitope sequence. The 15 mer peptide sequences were trimmed from both N- and C-terminus to a minimal of 9 aa long peptides. Once the minimal peptide sequence was identified, further confirmation was carried out using limiting dose titration ICS assay. After mapping minimal epitope sequence, the HLA restriction of the epitope was identified by stimulating T cells using peptide loaded HLA-matched and mismatched LCLs. […]

Row | Sequence | HLA Restriction
1 | VKNPYPISFLL (BK polyomavirus) | Cw*07

Tested on: CD4+ T cells
Assay: HLA restriction of mapped CD4+ BKV epitopes (ICS with peptide loaded HLA-matched and mismatched LCLs)
Assay type: cell-based, human
Settings: CD4+ epitopes mapped in this study; T cells stimulated with peptide loaded HLA-matched and mismatched LCLs
Text: In order to characterize the T cell responses directed towards these antigens and precisely map the HLA class I and class II-restricted T cell responses, individual overlapping peptides (15 aa long overlapping by 10 aa) were sourced for LTA, STA and VP1 proteins for T cell epitope mapping. A two-dimensional peptide matrix was used to distribute all individual peptides into small overlapping peptide pools. The matrix is set up in the way that each peptide occurs once on the ordinate (FIG. 3). These peptide pools were used in ICS assays. After the ICS analysis, T cell response to the peptide pools was compared with the matrix to identify individual peptides. These individual peptides were further assessed for T cell expansion and ICS analysis to identify potential BK. Once the 15 mer peptide was identified, further mimimalization of the epitope sequence was carried out to identify the optimal T cell epitope sequence. The 15 mer peptide sequences were trimmed from both N- and C-terminus to a minimal of 9 aa long peptides. Once the minimal peptide sequence was identified, further confirmation was carried out using limiting dose titration ICS assay. After mapping minimal epitope sequence, the HLA restriction of the epitope was identified by stimulating T cells using peptide loaded HLA-matched and mismatched LCLs.
In order to map the T cell epitope further analysis was carried out using sub pools of STA peptides (12 pools) designed based on the two dimensional matrix shown in FIG. 3. […] Similar epitope mapping process was carried out for other CD4^+ and CD8^+ T cell epitopes.

Row | Sequence | HLA Restriction
2 | CFTQWFGLDLTEETL [JCV variant […]] | DRB1*03/04
3 | FNVPKRRYWLFKGPI [JCV variant […]] | DRB1*15
4 | GGDEDKMKRMNTLYK [JCV variant […]] | DRB1*13
5 | GTQQWRGLARYFKIR [JCV variant […]] | DRB1*11/8
6 | KMKRMNTLYKKMEQD [JCV variant […]] | DRB1*13
7 | RGLARYFKIRLRKRS [JCV variant […]] | DRB1*11
8 | RKAYLRKCKEFHPDK [JCV variant […]] | DRB1*13
9 | RRYWLFKGPIDSGKT [JCV variant […]] | DRB1*15
10 | WDEDLFCHEDMFASD [JCV variant […]] | DQB5*01
